In patent publication US10519423B1, “High efficiency reprogramming of fibroblasts into cardiomyocytes” (The Regents of the University of Colorado, a body corporate, priority 2015, dated 2019):

Assays:
MEFs [1] = assay: Counting of spontaneously beating cells in infected MEFs; format: cell-based, mouse; details: for spontaneously beating cells induced by GHMT2m in the presence of inhibitor: GHMT2m-MEFs treated 7 days, counted at day 9, Thiazovivin 2.5 μM, SR-3677 5 μM, GW788388 3 μM, LY-364947 1.5 μM, SD-208 1 μM
Protocol: (§1) Fibroblasts were plated on tissue culture dishes pre-coated with SureCoat (Cellutron) at a density of ˜40 cells/mm^2 before transduction. The fibroblast growth medium was replaced with freshly made viral mixture containing polybrene (Sigma). Twenty-four hours later, fibroblasts were infected again with viral mixture containing polybrene. Twenty fours later, the viral medium was replaced with induction medium, composed of DMEM/199 (4:1) (Gibco), 10% FBS (Gemini), 5% horse serum(Gemini), antibiotics (Gibco), 1× non-essential amino acids (Gibco), 1× essential amino acids (Gibco), 1× B-27 (Gibco), 1× insulin-selenium-transferin (Gibco), 1× vitamin mixture (Gibco), and 1× sodium pyruvate (Gibco). Medium was changed every two-three days until cells were examined.
Cells in 60 mm dishes were examined under an EVOS® FL Color imaging system (Life Technologies) at 25° C. Beating cells were counted at a field with an area of 0.89 mm^2. Ten to fifteen fields in each dish were randomly chosen.

rats following MI = details: cited from earlier work
MEFs [2] = assay: Immunocytochemistry for cTnT and α-actinin in infected MEFs; format: cell-based, mouse
Protocol: as §1
(§2) Cells were fixed in 2% PFA for 15 min on ice then washed with DPBS (Gibco) three times at RT. The cells were permeabilized in 0.5% Triton X-100 (made in PBS) for 20 min at RT. After washing the cells with DPBS (Gibco), cells were incubated with the primary antibody against α-actinin (Sigma A7811, 1:300), Connexin 43 (Sigma, C6219, 1:500), Troponin T (Thermo Scientific MS-245-P, 1:500), α-SMA (Santa Cruz Biotechnology, SC-32251, 1:800), Myl2 (Proteintech, 10906-1-AP, 1:200), or Myl7 (Proteintech, 17283-1-AP, 1:200) in 10% FBS(Gemini) in DPBS for 1 hour at RT. Cells were wash with DPBS three times, 5 min each. Cell were incubated with the secondary antibody (Alexa Fluor 555 Molecular Probes A21422, 1:1000) and Hoechest (Molecular Probes 33342, 1:5000) for 30 mins at RT.

MEFs [3] = assay: Pro-fibrotic marker expression in infected MEFs (qPCR, Western blot, αSMA stress fiber immunostaining); format: cell-based, mouse
Protocol: (§3) Cells were harvested in TRizol reagent (Ambion) for RNA isolation. RNA was extracted with the RNeasy® Plus Universal Mini Kit (Qiagen). RT-PCR was performed using the Superscript III first-strand synthesis system (Invitrogen). qPCR was performed using the SYBR® Green PCR master mix (Applied Biosystems) or StepOne™ Real-Time PCR Systems (Applied Biosystems). Primers are listed in Supplementary Table 1. Ryr2 (Mm00465877_m1) and Myh7 (Mm01319006_91) are Taqman probes (Life technologies).
Samples were placed on ice and washed with ice-cold DPBS (Gibco) twice, then ice-cold lysis buffer (150 mM NaCl, 50 mM Tris-Cl pH7.4, 1 mM EDTA, 1% Triton, Complete mini tablet (Roche), 1 mM PMSF freshly added before use) was added to the cells. Cells were scraped and transferred to a pre-chilled 1.5 Eppendorf tube and frozen in liquid N2. Before used, the lysate was thawed on ice. The lysate was passed carefully through a 25 g needle for 5 times and then centrifuge at 14,000 rpm for 15 minutes at 4° C. The supernatant was transferred to a new 1.5 ml tube. The protein concentration was measured and 20 ug of lysate for each sample was loaded to SDSPAGE. Proteins were then transferred to PVDF. The PDVF membrane was blocked in 2.5% BSA in 1×TBST for 30 mins at room temperature (RT). The primary antibody was added in blocking buffer for 60 mins at RT. Wash in 1×TBST (20 mM Tris-Cl, pH7.4; 150 mM NaCl; 0.1% Tween20) three times at RT, each for 15 mins. The Secondary antibody was added in blocking buffer for 45 mins at RT. The membrane was washed in 1 XTBST for 15 mins, 1×TBST for 5 mins, then TBS (10 mM Tris-Cl pH8, 150 mM NaCl) for 5 mins. The membrane was resolved with Super Signal® West Pico (34080) or Femto (34095) substrate (Thermo Scientfic). The primary antibodies include: Snail (Cell Signaling, 3879S, 1:1000), Slug (Cell Signaling, 9585S, 1:1000), P-Smad2 (Cell Signaling, 23108P, 1:1000), Smad2 (Cell Signaling, 5339, 1:1000), αSMA (Santa Cruz, SC-32251, 1:10000), cTn1 (Phospho Solutions, 2010-TNI, 1:1000), cTnT (Sigma, T6277, 1:1000), and GAPDH (Ambion, AM4300). The secondary antibodies include: Goat Anti-Mouse IgG (H+L) (Southern Biotech, 1031-05, 1:2000). Goat Anti-Rabbit IgG (Life Technologies, 65-6120, 1:2000). For separation of α- and β-myosin heavy chain, samples were run by modified 6% SDS-PAGE (separating acrylamide/bis ratio 1:100; resolving gel buffer pH 9.0; running gel buffer pH 8.2; β-mercaptoethanol 600 μl/l inner gel buffer). Gels were run overnight at 4° C. and stained with BioSafe Coomassie Blue protein stain.
as §2

MEFs [4] = assay: qPCR of cardiac genes in reprogramming MEFs; format: cell-based, mouse
Protocol: as §3

[5] = system: mice following ischemia/reperfusion injury; details: cited from earlier work
MEFs [6] = assay: Intracellular staining for flow cytometry (cTnT, Myc) in retrovirus-infected MEFs; format: cell-based, mouse; details: GHMT-infected MEFs, day 7; alone or treated with TGF-β1 (10 ng/ml) or A83-01 (0.5 μM, day 3 to day 7)
Protocol: C57BL6 pregnant mice at E13 were order from Charles River's laboratory. Embryos at E14.5 were harvested and their internal organs and head were removed. The body below the liver was minced using blade to fine pieces. Minced embryos were incubated with 2 ml of 0.25% trypsinIl mM EDTA, Phenol Red (Gibco) for 40 mins at 37° C. with 5% CO2. Cells were suspended in 25 ml of growth medium (DMEM/Hi glucose (Hyclone) 10% FBS (Gemini), 1.1% Penicillin-Streptomycin (Gibco) and 1.1% GlutaMAX supplement (Gibco)) and then plated on a 15 cm dish. In 24 hours, the media was aspirated and new 25 ml of growth medium was added. In 72 hours, MEFs were harvested and stored for future use.
as §1
Adherent fibroblasts were washed with DPBS (Gibco). Cells were detached from culture dish by treatment with 0.25% Trypsin/EDTA (Gibco) for 3 min at 37° C. Cells were then washed with 4 ml of 5% FBS (Gemini) in DPBS filtered through a cell strainer and centrifuge at 1200 rpm×6 mins. Cells were washed with 500 ul of 1% BSA in DPBS. Cells were fixed with BD Cytofix/Cytoperm™ solution in 0.2 ml/1 million cells in 1.5 ml eppendorf tube for 20 min on ice. Cells were washed with 1 ml of BD perm/wash buffer and Centrifuged for 6 min at 1200 rpm. The supernatant was discarded; cells were washed again with 1 ml of BD Perm/wash buffer and left overnight at 4° C. The next day, Cells were centrifuged for 6 min at 1200 rpm, the supernatant discarded and 100 μl of Blocking buffer made with 5% goat, donkey serum (Sigma: G9023 and D9663) in Perm/wash buffer was added to the cells and incubated for 30 min at RT. A primary antibody: Mouse Troponin T (cTnT) antibody (Thermo Scientific, ms-295-p, 1:200), mouse anti-C-Myc antibody (BD Pharmingen, 551102, 1:200) in 100 μl BD Perm/Wash buffer was added to the cells and incubated for 1 hr at RT. One ml cold BD Perm/wash buffer was added to the cells and centrifuged for 6 min at 1200 rpm. […] Cells were re-suspended in 300 ul of 1% BSA/DPBS and then analyzed using FACS Caliber (BD Sciences) and FlowJo software.

iCMs = assay: Spontaneous calcium transients in Fura-2 AM-loaded iCMs; format: cell-based, mouse; parameters: dose or concentration left out as unconfirmed; details: iCMs on days 10-12, isoproterenol
Description: To determine whether iCMs were developing functional excitation-contraction (EC) coupling, we imaged spontaneous calcium transients from Fura-2 AM-loaded iCMs. Spontaneous calcium transients were detected in spontaneously beating cells on days 10-12 (FIGS. 68-71). […] To determine whether iCMs are able to appropriately respond to hormone stimulation, a critical function of normal cardiomyocytes, we measured calcium transients in response to the b-adrenergic agonist isoproterenol (Iso).

[7] = GFP-, GHMT- and GHMT2m-infected cultures, day 7

In the case of `O=C(NC1CCOCC1)c1ccc(-c2cc(-c3c[nH]nc3-c3ccccn3)ccn2)cc1` [GW788388], the “spontaneously beating cells induced by GHMT2m in the presence of inhibitor” value (MEFs [1]) is given as “enhanced cardiac reprogramming by inducing more spontaneously beating cells” and the “TGF-β activity, cardiac fibrosis, ventricular remodeling, systolic dysfunction” value (rats following MI) is given as “significantly decreased TGF-β activity, cardiac fibrosis and ventricular remodeling with attenuation of systolic dysfunction”.

In the case of `c1ccc(-c2[nH]ncc2-c2ccnc3ccccc23)nc1` [LY-364947], the “spontaneously beating cells induced by GHMT2m in the presence of inhibitor” value (MEFs [1]) is reported as “enhanced cardiac reprogramming by inducing more spontaneously beating cells”.

In the case of `C[C@@H](N)[C@H]1CC[C@H](C(=O)Nc2ccncc2)CC1` [Y-27632], the “assembly of myocyte sarcomeres” value (MEFs [2]; infected MEFs treated with Y-27632 (30 μM), day 14) is reported as “enhanced”, the beating cell population (MEFs [1]; GHMT2m cultures of MEFs, by day 12, without or with Y-27632 (30 μM)) is reported as ~30% and the “increase of the number of beating cells” value (MEFs [1]; GHMT-infected MEFs, Y-27632 30 μM, by 4 weeks) is reported as 7 fold. For the same compound, the “time by which cells started to beat” value (MEFs [1]; MEFs, GHMT2m alone, or GHMT-infected cultures treated with Y-27632 (30 μM) or A83-01 (0.5 μM)) was ≤ 12 days, the “Snail and Slug expression” value (MEFs [3]; [7]) was “did not change” and the “expression of Fn-EDA and αSMA” value (MEFs [3]; [7]) was “decreased”. The “inhibition of expression of pro-fibrotic markers, comparison of inhibitors” value (MEFs [3]; reprogramming MEFs) was “inhibited expression of pro-fibrotic markers less efficiently than A83-01”, the cardiomyocyte-specific gene expression (MEFs [4]; reprogramming MEFs treated with Y-27632 for 5 days, day 7) was “enhanced” and the “infarct size and remodeling” value [5] was “decreased infarct size and remodeling”.

In the case of “TGF-β1: Recombinant Mouse TGF-beta 1 (R&D Systems 7666-MB-005), pro-fibrotic stimulus”, the cTnThigh fraction (MEFs [6]) is reported as “approximately 19%”, the “fraction of cTnT+ cells” value (MEFs [2]; GHMT2m-cultures treated with TGF-β1, day 7 and day 14) is reported as “did not significantly decrease” and the “cTnT+ and α-actinin+ populations” value (MEFs [2]; GHMT-infected MEFs treated with TGF-β1, day 14) is reported as “significantly reduced”. For the same compound, the “decrease of beating cells” value (MEFs [1]; GHMT2m-infected MEFs treated with TGF-β1, by one month) was 100 fold, the “effect on beating cells” value (MEFs [1]; GHMT-infected MEFs treated with TGF-β1, by one month) was “completely abolished” and the “profibrotic gene Col1a1 expression” value (MEFs [3]; GHMT2m-fibroblasts treated with TGF-β1) was “enhanced”. For the same compound, the “amount of phospho-Smad2, expression of Fn-EDA and Col1a1, formation of αSMA stress fibers” value (MEFs [3]; GHMT-infected cultures at day 7, TGF-β1 10 ng/ml, compared to non-treated) was “increased”, the “expression of other cardiomyocyte markers, including α-actinin, Myh6 and Actc1” value (MEFs [4]; GHMT2m-cultures treated with TGF-β1) was “significantly down-regulated” and the cardiac gene expression (MEFs [4]; GHMT-infected cultures treated with TGF-β1 for 4 days) was “significantly reduced”.

In the case of `O=C(NCc1ccccc1)c1csc(Nc2ccncn2)n1` [Thiazovivin], the “spontaneously beating cells induced by GHMT2m in the presence of inhibitor” value (MEFs [1]) is reported as “enhanced cardiac reprogramming and promoted formation of spontaneously beating cells”.

With `Fc1ccc(Cl)cc1-c1nc(Nc2ccncc2)c2nccnc2n1` [SD-208] the “spontaneously beating cells induced by GHMT2m in the presence of inhibitor” value (MEFs [1]) was “enhanced cardiac reprogramming by inducing more spontaneously beating cells”.

For `CC(C)NCC(O)c1ccc(O)c(O)c1` (stereo not shown) [Iso, isoproterenol], the “frequency of cell contraction and spontaneous calcium transients” value (iCMs) was “significantly increased”.

With `CN(C)CCOc1cc(-c2cn[nH]c2)ccc1NC(=O)C1COc2ccccc2O1` (stereo not shown) [SR-3677] the “spontaneously beating cells induced by GHMT2m in the presence of inhibitor” value (MEFs [1]) was “enhanced cardiac reprogramming and promoted formation of spontaneously beating cells”.
